We go through 22 molecules from PMC3409642 (Pharmaceutical research, 2012).

Data set [1] concerns the target T1, UGT1A9 (Homo sapiens, UniProt O60656).
T1 sequence (O60656 26-530): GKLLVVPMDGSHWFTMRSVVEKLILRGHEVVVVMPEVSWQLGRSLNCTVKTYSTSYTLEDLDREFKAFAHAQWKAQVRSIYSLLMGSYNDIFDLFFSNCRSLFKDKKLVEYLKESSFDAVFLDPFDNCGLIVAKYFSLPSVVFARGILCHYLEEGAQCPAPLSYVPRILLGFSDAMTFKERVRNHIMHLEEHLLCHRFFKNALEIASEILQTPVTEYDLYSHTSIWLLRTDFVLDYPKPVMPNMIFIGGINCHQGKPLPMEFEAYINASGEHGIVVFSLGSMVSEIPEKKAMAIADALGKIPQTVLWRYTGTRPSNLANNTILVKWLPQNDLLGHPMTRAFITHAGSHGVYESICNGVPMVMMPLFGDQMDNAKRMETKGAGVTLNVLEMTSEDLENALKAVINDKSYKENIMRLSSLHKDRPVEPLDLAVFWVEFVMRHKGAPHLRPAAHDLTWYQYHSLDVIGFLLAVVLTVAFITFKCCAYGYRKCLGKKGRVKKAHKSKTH
The data set can be described thus: in vitro.

Data set [2] addresses T1, UGT1A9. The data set can be described thus: Kinetic profiling of glucuronidation by expressed human UGT1A9. The settings on record: for Log (CLint) (Actual): log of experimental CLint (μl/mg/min); for Vmax: pH 7.4.
Data set [3] concerns the target T1, UGT1A9. Particulars: for Log (CLint) (Actual): recombinant enzyme.
Substrate in data set [4]: C=CCc1ccc(O)c(OC)c1
The data set can be described thus: not read. Particulars: pH 7.4; 37.0 °C.

Substrate in data set [5]: CN(C)CCc1c[nH]c2cccc(O)c12
The data set is described as follows: not read. Particulars: pH 7.4; 37.0 °C.

Substrate in data set [6]: COC(=O)c1ccc(O)cc1
The data set can be described thus: not read. Particulars: pH 7.4; 37.0 °C.

Substrate in data set [7]: Cc1ccc2oc(=O)cc(O)c2c1
The data set is described as follows: not read. Particulars: pH 7.4; 37.0 °C.

Substrate in data set [8]: Oc1ccc(-c2ccccc2)cc1
The data set can be described thus: not read. The settings on record: pH 7.4; 37.0 °C.

Like-named read-outs stand apart in the source and are kept apart here.

As for `CC(C)c1ccc(O)cc1` [compound 117, 4-Isopropylphenol], in data set [1] (pH 7.4), the Km amounted to 36.4 µM. The “Log (CLint) (Actual)” value in data set [2] amounted to 1.78.
Turning to `O=c1cc(-c2ccccc2)oc2cc(O)c(O)c(O)c12` [compound 51, Baicalein], the “Log (CLint) (Actual)” value in data set [3] (human, pH 7.4) is given as 3.88. In addition, the Michaelis-Menten constant (Km) in data set [1] (pH 7.4, Km) was found to be 0.7 µM.
On to `COc1cc(/C=C/C(=O)O)ccc1O` [compound 95, Ferulic Acid], for which the “CLint (Vmax/Km)” value in data set [3] came out at 0.4 µL/min/mg. For the same molecule, the “Log (CLint) (Actual)” value in data set [3] (human) is given as 0.30. Also, the Km in data set [3] (pH 7.4) was 884 µM. Also, the Vmax in data set [2] was 372 pmol/mg/min.
Consider `O=c1c(-c2ccc(O)cc2)coc2cc(O)cc(O)c12` [compound 105, Genistein], for which, in data set [3] (human, pH 7.4), the “CLint (Vmax/Km)” value is 617 µL/min/mg. In addition, the Michaelis-Menten constant (Km) in data set [1] (pH 7.4) is 2.09 µM. Besides, the “Log (CLint) (Actual)” value in data set [2] amounted to 2.79.
For `CCCCc1ccc(O)cc1` [compound 110, 4-n-Butylphenol], the “Log (CLint) (Actual)” value in data set [3] (human, pH 7.4) is listed as 1.18. Further, the Michaelis-Menten constant (Km) in data set [1] (pH 7.4, Km) turned out to be 43.1 µM.
As to `Oc1cccc2ccccc12` [compound 21, Naphthol], in data set [3] (human, pH 7.4), the “CLint (Vmax/Km)” value came out at 288 µL/min/mg and the “Log (CLint) (Actual)” value is recorded as 2.46. In data set [2], the maximum rate (Vmax) was 72.1 pmol/mg/min.
Take `O=c1c(-c2ccc(O)cc2)coc2cc(O)ccc12` [compound 101, Daidzein]: in data set [3] (human, pH 7.4), the “CLint (Vmax/Km)” value came out at 77 µL/min/mg and the “Log (CLint) (Actual)” value worked out at 1.89.
Take `CCc1c2c(nc3ccc(O)cc13)-c1cc3c(c(=O)n1C2)COC(=O)[C@]3(O)CC` [compound 144, SN-38]: the “CLint (Vmax/Km)” value in data set [3] came to 3 µL/min/mg. Besides, the “Log (CLint) (Actual)” value in data set [3] (human) came to 0.44.
Consider `COc1cc(-c2oc3cc(O)cc(O)c3c(=O)c2O)ccc1O` [compound 87, Isorhamnetin], for which the “Log (CLint) (Actual)” value in data set [3] (human, pH 7.4) is given as 4.59.
As for `CCOC(=O)c1ccc(O)cc1` [compound 130, Ethyl-4-hydroxybenzoate], in data set [3] (human, pH 7.4), the “Log (CLint) (Actual)” value was 1.61.
As to `O=c1cc(-c2ccccc2)oc2cc(O)cc(O)c12` [compound 52, Chrysin], the “Log (CLint) (Actual)” value in data set [3] (human, pH 7.4) is on record as 3.96.
As for `COc1ccc(-c2coc3cc(O)cc(O)c3c2=O)cc1` [compound 100, Biochanin A], the “CLint (Vmax/Km)” value in data set [3] turned out to be 335 µL/min/mg. Also, the “Log (CLint) (Actual)” value in data set [3] (human) amounted to 2.53. The Michaelis constant (Km) in data set [3] (pH 7.4) was determined as 1.13 µM.
With `O=c1c(O)c(-c2ccccc2)oc2cc(O)cc(O)c12` [85.a, Galangin], the Km in data set [1] (pH 7.4, Km) amounted to 0.68 µM. Besides, the “Log (CLint) (Actual)” value came out at 4.04 in data set [2] and 3.68 in data set [2] (listed as 85.b).
For `CCC(C)c1ccc(O)cc1` (stereo not drawn) [compound 127, 4-sec-Butylphenol], the “CLint (Vmax/Km)” value in data set [3] (human, pH 7.4) came to 37 µL/min/mg. Further, in data set [1] (pH 7.4, Km), the Km amounted to 87.5 µM. For the same molecule, the “Log (CLint) (Actual)” value in data set [2] was found to be 1.57.
`O=c1c(O)c(-c2ccccc2)oc2ccc(O)cc12` [compound 65, 3,6-Dihydroxyfavone]: the “CLint (Vmax/Km)” value in data set [3] is 21000 µL/min/mg. Besides, the “Log (CLint) (Actual)” value in data set [3] (human) came out at 4.32. Besides, in data set [3] (pH 7.4), the Km is 0.62 µM.
On to `COC(=O)c1ccc(O)cc1` [compound 132, Methyl-4-hydroxybenzoate], for which, in data set [3] (human, pH 7.4), the “Log (CLint) (Actual)” value was found to be 1.73.
`C[C@]12CC[C@@H]3c4ccc(O)cc4CC[C@H]3[C@@H]1CC[C@@H]2O` [estradiol, reference compound]: the “glucuronide metabolite formation on incubation with UGT1A9 (non-substrate)” value in data set [3] was “no metabolite can be detected”.
Turning to `Cc1cc(O)c2c(c1)C(=O)c1cc(O)cc(O)c1C2=O` [compound 18, Emodin], in data set [3] (human, pH 7.4), the “CLint (Vmax/Km)” value came out at 1020 µL/min/mg and the “Log (CLint) (Actual)” value was determined as 3.01. Also, in data set [1] (pH 7.4, Km), the Michaelis-Menten constant (Km) was 2.87 µM.
Consider `Cc1cc(O)cc2oc(-c3ccccc3)cc(=O)c12` [compound 48, 7-Hydoxy-5-methylflavone], for which, in data set [3], the “CLint (Vmax/Km)” value came out at 5712 µL/min/mg. Moreover, the “Log (CLint) (Actual)” value in data set [3] (human) is reported as 3.76. The Km in data set [3] (pH 7.4) was found to be 0.94 µM.
Taken in the same sequence, the figures for `O=C1c2ccc(O)cc2OCC1c1ccc(O)cc1` (stereo not drawn) [compound 102, Dihydrodaidzein] were 8.1 µL/min/mg, 0.91 and 77.7 µM.
`CC(C)(c1ccc(O)cc1)c1ccc(O)cc1` [compound 135, Bisphenol A]: the “Log (CLint) (Actual)” value in data set [3] (human, pH 7.4) is 1.68.

B1: human UGT1A9 (Homo sapiens) (protein)
chain: T1 sequence (O60656 26-530)
For the molecule B1, the Michaelis-Menten constant (Km) in data set [4] is 25 µM; in data set [5], 748 µM; in data set [6] it was 101 µM; in data set [7] it was 57.8 µM; in data set [8], 56.2 µM. The maximal velocity (Vmax) in data set [4] is 0.001 µmol/min/mg; in data set [5], 0.00598 µmol/min/mg; in data set [7], 0.000225 µmol/min/mg; in data set [8], 0.00124 µmol/min/mg. For the same molecule, the Vmax/Km turned out to be 40 µL/min/mg in data set [4], 8 µL/min/mg in data set [5], 4 µL/min/mg in data set [7] and 22 µL/min/mg in data set [8].
